This is an account of results in ChEMBL document CHEMBL1201862, “PubChem BioAssay data set” (2004).

Test systems include A498; A549; CCRF-CEM; HCC 2998; HCT-15; LOX IMVI; M14; NCI-H23; NCI-H460; NCI-H522; OVCAR-3; SF-268; SK-MEL-2; SNB-19; SNB-75; SR; TK-10; K562.
Assay in all cases: DTP human tumour cell line panel, 48 h

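Five concentrations, 48 hours, 96-well plates. Abbreviation: GI50, concentration required for 50% inhibition of growth.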 Calls of active or inactive are those of the source. Rule as the data show it: active = GI50 up to about 1.1 µM and inactive = higher.

As to `c1ccc2c(c1)C1=NCCN1c1ccccc1-2`, the GI50 in the assay on A498 is 3.18 µM (inactive); in the assay on A549, 3.97 µM (inactive); in the assay with CCRF-CEM it was 1.64 µM (inactive); with HCC 2998, 4.46 µM (inactive); in the assay with HCT-15 it was 3.1 µM; in the assay on LOX IMVI, 2.95 µM (inactive). For the same compound, the GI50 is 4.01 µM (inactive) in the assay on M14; 2.72 µM (inactive) in the assay on NCI-H23; 1.77 µM (inactive) in the assay with NCI-H460; 1.45 µM (inactive) with NCI-H522; 2.95 µM (inactive) in the assay with OVCAR-3; 3.46 µM (inactive) in the assay on SF-268. Moreover, the GI50 in the assay on SK-MEL-2 is 3.19 µM (inactive); with SNB-19 it was 3.46 µM (inactive); in the assay on SNB-75 it was 3.47 µM (inactive); with SR, 0.502 µM (active); in the assay on TK-10 it was 2.49 µM (inactive).
In the case of `C[N+]1(C)C/C(=C/c2ccc(F)cc2)C(=O)/C(=C\c2ccc(F)cc2)C1`, the GI50 in the assay on A498 is 31.1 µM (inactive); in the assay on A549, 74 µM (inactive); in the assay with CCRF-CEM it was 23.7 µM (inactive); in the assay with HCC 2998, > 100 µM (inactive); in the assay on HCT-15, greater than 100 µM; with K562, 28.2 µM (inactive). In addition, the GI50 in the assay with LOX IMVI is > 100 µM (inactive); in the assay on M14, > 100 µM (inactive); in the assay with NCI-H23 it was 32.7 µM (inactive); in the assay with NCI-H460, 50.9 µM (inactive); in the assay with NCI-H522, 16.6 µM (inactive); in the assay on OVCAR-3, 45.5 µM (inactive). In addition, the GI50 with SF-268 was 23.3 µM (inactive); in the assay on SK-MEL-2 it was 56.8 µM (inactive); in the assay on SNB-19 it was 49.3 µM (inactive); with SNB-75, 53.8 µM (inactive); in the assay with TK-10, > 100 µM (inactive).
As to `Cn1c(=O)c2nc3sc4ccccc4c(=N)n3c2n(C)c1=O`, the GI50 in the assay on A498, in the assay with A549, in the assay with CCRF-CEM, in the assay with HCC 2998, with K562 and in the assay on LOX IMVI was > 100 µM (inactive) throughout. Further, the GI50 in the assay on NCI-H23, in the assay on NCI-H460, with NCI-H522, with SF-268, in the assay on SK-MEL-2 and in the assay with SNB-19 was > 100 µM (inactive) in each case. Besides, the GI50 in the assay on SR and in the assay on TK-10 was > 100 µM (inactive) each time.
Take `Cc1ccc([S+]([O-])c2ccccc2[N+](=O)[O-])cc1` (stereo not drawn): the GI50 is 28.1 µM (inactive) with A498; 70.1 µM (inactive) in the assay on A549; 28.6 µM (inactive) in the assay with CCRF-CEM; 78.9 µM (inactive) in the assay on HCC 2998; 65 µM in the assay on HCT-15; 64.4 µM (inactive) in the assay with K562. Moreover, the GI50 in the assay with LOX IMVI is 38.5 µM (inactive); in the assay with M14, > 100 µM (inactive); in the assay with NCI-H23, 32.6 µM (inactive); in the assay with NCI-H460, 79.8 µM (inactive); in the assay with NCI-H522 it was 33.3 µM (inactive); in the assay on OVCAR-3, 73.8 µM (inactive). The GI50 is > 100 µM (inactive) in the assay with SK-MEL-2, 58.3 µM (inactive) in the assay with SNB-19, 46 µM (inactive) with SR and > 100 µM (inactive) in the assay on TK-10.
As to `CC1=C(C(=O)NCc2ccccc2)C(c2ccccc2[N+](=O)[O-])C(C(=O)NCc2ccccc2)=C(C)N1`, the GI50 in the assay on A498 is 18.2 µM (inactive); in the assay with A549 it was 25.9 µM (inactive); in the assay with CCRF-CEM it was 6.89 µM (inactive); with HCC 2998, 17.3 µM (inactive); in the assay on HCT-15, 7.8 µM; in the assay with K562, 5.08 µM (inactive). In addition, the GI50 with LOX IMVI is 7.24 µM (inactive); with M14, 11.7 µM (inactive); in the assay on NCI-H23, 12.3 µM (inactive); in the assay with NCI-H460, 14 µM (inactive); in the assay on OVCAR-3, 5.31 µM (inactive); in the assay on SF-268 it was 9.18 µM (inactive). Moreover, the GI50 in the assay with SNB-19 is 14.2 µM (inactive); with SNB-75 it was 13.6 µM (inactive); in the assay on SR, 5.13 µM (inactive); with TK-10, 17.6 µM (inactive).
Take `COc1ccc2c3ccc4c(c3n(C)c2c1)C(=O)C=CC4=O`: the GI50 is > 100 µM (inactive) in the assay on A498; > 100 µM (inactive) in the assay with A549; 2.93 µM (inactive) in the assay on CCRF-CEM; 84.5 µM (inactive) in the assay on HCC 2998; 42.6 µM in the assay on HCT-15; 5.92 µM (inactive) in the assay on K562. The GI50 was > 100 µM (inactive) in the assay on M14; 52.1 µM (inactive) in the assay on NCI-H23; 10.4 µM (inactive) in the assay with NCI-H522; 44.3 µM (inactive) in the assay on SF-268; > 100 µM (inactive) in the assay on SNB-19; > 100 µM (inactive) in the assay with SNB-75. Further, the GI50 in the assay with SR is 2.84 µM (inactive).
As to `CCOC(=O)C(C)(C)Oc1ccc(/C=C/C(=O)c2ccc(Cl)cc2)cc1`, the GI50 in the assay on A498 was 20.2 µM (inactive); with A549, 33.5 µM (inactive); in the assay with CCRF-CEM it was 17.2 µM (inactive); in the assay with HCC 2998, > 10 µM (inactive); in the assay on HCT-15, 17.2 µM; in the assay on K562, 14.3 µM (inactive). Further, the GI50 in the assay with LOX IMVI was 16.6 µM (inactive); with M14, 18.4 µM (inactive); in the assay with NCI-H23, 18.6 µM (inactive); with NCI-H460 it was 28.7 µM (inactive); with OVCAR-3, 16.3 µM (inactive); in the assay with SF-268 it was 19.1 µM (inactive). In addition, the GI50 in the assay with SK-MEL-2 was 20.7 µM (inactive); in the assay with SNB-19, 19.2 µM (inactive); in the assay with SNB-75, 15.2 µM (inactive); with SR, 27.3 µM (inactive); with TK-10, 70.8 µM (inactive).
Take `CCOc1ccccc1NC(=O)CCC(=O)NN`: the GI50 with A498 is > 100 µM (inactive); with A549, > 100 µM (inactive); with CCRF-CEM it was > 100 µM (inactive); in the assay on HCC 2998, > 100 µM (inactive); in the assay on HCT-15, greater than 100 µM; in the assay on K562 it was > 100 µM (inactive). Besides, the GI50 with LOX IMVI, with M14, in the assay with NCI-H23, with NCI-H460, in the assay with NCI-H522 and in the assay with OVCAR-3 was > 100 µM (inactive) throughout. Also, the GI50 is > 100 µM (inactive) in the assay with SF-268; > 100 µM (inactive) in the assay with SK-MEL-2; > 100 µM (inactive) in the assay with SNB-19; > 100 µM (inactive) with SNB-75; 2.75 µM (inactive) in the assay with SR; > 100 µM (inactive) in the assay with TK-10.
In the case of `O=C(/C=C/c1ccccc1O)C(c1ccccc1)c1ccccc1`, the GI50 was > 100 µM (inactive) in the assay on A498; > 100 µM (inactive) in the assay with A549; 60.8 µM (inactive) with CCRF-CEM; > 100 µM (inactive) with HCC 2998; greater than 100 µM with HCT-15; 78.5 µM (inactive) in the assay with K562. For the same compound, the GI50 in the assay with LOX IMVI was 24.1 µM (inactive); in the assay with M14, > 100 µM (inactive); with NCI-H23, > 100 µM (inactive); with NCI-H460, > 100 µM (inactive); in the assay on NCI-H522, 65.6 µM (inactive); in the assay on OVCAR-3 it was > 100 µM (inactive). Moreover, the GI50 in the assay with SF-268 was > 100 µM (inactive); with SK-MEL-2, > 100 µM (inactive); with SNB-19 it was > 100 µM (inactive); in the assay on SNB-75, 20.1 µM (inactive); with SR, > 100 µM (inactive); in the assay on TK-10, > 100 µM (inactive).
Take `CS(=O)(=O)C1S(=O)(=O)OCCOS1(=O)=O`: the GI50 with A498, in the assay on A549, in the assay on HCC 2998, in the assay with K562, in the assay with LOX IMVI and in the assay on M14 was > 100 µM (inactive) throughout. Moreover, the GI50 with NCI-H23, in the assay on NCI-H460, with NCI-H522, with OVCAR-3, with SF-268 and in the assay on SNB-19 was > 100 µM (inactive) each time. Further, the GI50 in the assay on SNB-75, in the assay on SR and in the assay on TK-10 was > 100 µM (inactive) in each case.
With `Cc1cn(C2CC(O)C(COC(=O)c3ccccc3)O2)c(=O)[nH]c1=O` (stereo not drawn), the GI50 in the assay on A498 is > 100 µM (inactive); in the assay on A549, > 100 µM (inactive); in the assay on CCRF-CEM, > 100 µM (inactive); in the assay on HCC 2998, > 100 µM (inactive); in the assay with HCT-15 it was greater than 100 µM; with K562, > 100 µM (inactive). The GI50 with LOX IMVI, in the assay with M14, with NCI-H23, in the assay on NCI-H460, in the assay on NCI-H522 and with OVCAR-3 was > 100 µM (inactive) throughout. For the same compound, the GI50 with SF-268 was > 10 µM (inactive); with SNB-19 it was > 100 µM (inactive); in the assay on SR, > 100 µM (inactive); in the assay with TK-10, > 100 µM (inactive).
Turning to `CC(=O)n1cc(CC(C)O)c(=O)[nH]c1=O` (stereo not drawn), the GI50 was > 100 µM (inactive) with A498; > 100 µM (inactive) in the assay on A549; greater than 100 µM with HCT-15; > 100 µM (inactive) with K562; > 100 µM (inactive) with LOX IMVI; > 100 µM (inactive) in the assay with M14. For the same compound, the GI50 in the assay with NCI-H23, with NCI-H460, with NCI-H522, in the assay on OVCAR-3, in the assay with SF-268 and with SK-MEL-2 was > 100 µM (inactive) each time. Besides, the GI50 in the assay with SNB-19, in the assay on SNB-75, with SR and with TK-10 was > 100 µM (inactive) in each case.

As a reminder, the GI50 is the concentration giving 50% growth inhibition.
